Data: patent US20030215817A1, “Modulation of gene expression in formation of fatty atherosclerotic lesions” (priority 2003, published 2003)
Counter-ions that a name gives are not always drawn. Blank lines part the entries; values can stand above or below the compound they belong to.

What was measured:
[1] = preliminary kinetic studies: plasma levels after subcutaneous administration; type: in vivo; conditions: rabbit, sc, rabbits, after 7 days from the administration
Method: The doses of lercanidipine used were determined from preliminary kinetic studies.

[2] = test system: Rec1_12 (GCCC 232) mRNA; assay: quantified RT-PCR, Rec1_12; type: in vivo, rabbit; conditions: for Relative Abundance Rec1_12, 20 pg F: hypercholesterolemic plus lercanidipine racemate, eight weeks, H2 (normocholesterolemic)=1.0
Method: (§1) Nineteen of the isolated DST clones were further validated using RT-PCR analyses; the data are presented in FIGS. 6-24 and in Tables 5-23, below. For each DST examined, the optimal annealing temperature and reagent conditions were determined for the corresponding set of primers (see Table 25) based on results from a preliminary experiment. In eight separate reactions, each set of primers was assayed to find the optimal conditions by adjusting the following four parameters: primer concentration, dNTP concentration, MgCl2 concentration, and number of Taq polymerase units. Once optimal conditions were determined, each DST was run in duplicate multiple simultaneous reactions which usually included at least four dilutions of template (cDNA library), plus control reactions lacking template, and six sequential data points for numbers of cycles.
(§2) Reactions were performed using “Hot Start” PCR with the Clontech TaqStart antibody system (Cat. #5400-1). Each reaction contained 1 ml of the cDNA library dilution as template, determined amounts of AmpliTaq DNA polymerase (cat. #N808-0156), MgCl2, dNTPs (GibcoBRL cat. #10297-018), primer, and Clontech TaqStart Antibody in a 20 ml final reaction volume using 10×Taq buffer II (without MgCl2). Typically, a master mix containing all components except the template was prepared and aliquoted. Various templates were then added to these master mix samples and 20 ml volumes were subsequently dispensed into individual reaction tubes. At various times during the PCR run, tubes were removed sequentially on a predetermined schedule in order to quantitate expression of the target DST over a “window” of cycle times. After amplification, the samples were quantified via fluorimetry.
(§3) PCR was performed at annealing temperatures that were five degrees above the average melting temperature of each primer pair. For primers greater than 10 bases (in a 0.05M salt solution), melting temperature was calculated using the following formula: Tm=59.9+41[% GC]−[675/Primer Length], where %GC is the decimal value. Following determination of the average melting temperature of the primer pair, the annealing temperature was determined by adding five degrees to the average melting temperature. PCR was performed using the following program: 1) 95 degrees Celsius, 3 minutes; 2) 95 degrees Celsius, 30 seconds; 3) TM+5 degrees Celsius, 30 seconds; 4) 72 degrees Celsius, for a time dependent on target length at 16 bp/second; 5) repeat steps 2-4 33 more cycles; 6) 72 degrees Celsius, 3 minutes; 7) 14 degrees Celsius, forever.
(§4) Following temperature cycling, 2 ml of the PCR reaction was added to 140 ml of a 1:280 dilution of PicoGreen (Molecular Probes cat. #P-11495 (10×100 ml)) in TE pH 7.5 in a 96-well Costar UV microtiter plate (Fisher cat. #07-200623). The samples were mixed gently for 1.5 minutes and allowed to equilibrate at room temperature in the dark for 15 minutes. The concentration of the PCR products was quantified by fluorimetry using a PerSeptive Biosystems CytoFluor series 4000 multi-well plate reader.
(§5) Background fluorescence was determined by using duplicate control samples that were cycled with all reaction components except the template. The mean value from these duplicate background control samples was subtracted from the corresponding experimental values prior to analyzing results. The sensitivity of the PicoGreen dsDNA assay is reported to be 250 pg/ml (50 pg dsDNA in a […] assay volume) using a fluorescence microplate reader such as was used in these measurements. […]

[3] = in vivo studies (Soma 1998); cited from earlier work
[4] = test system: Rec1_36 (TTAG 155) mRNA; assay: quantified RT-PCR, Rec1_36; type: in vivo, rabbit; conditions: hypercholesterolemic plus lercanidipine racemate, eight weeks, H2 (normocholesterolemic)=1.0
Method: as §1
Reactions were performed using “Hot Start” PCR with the Clontech TaqStart antibody system (Cat. #5400-1). Each reaction contained 1 ml of the cDNA library dilution as template, determined amounts of AmpliTaq DNA polymerase (cat. #N808-0156), MgCl2, dNTPs (GibcoBRL cat. #10297-018), primer, and Clontech TaqStart Antibody in a 20 ml final reaction volume using 10×Taq buffer II (without MgCl2). Typically, a master mix containing all components except the template was prepared and aliquoted. […] At various times during the PCR run, tubes were removed sequentially on a predetermined schedule in order to quantitate expression of the target DST over a “window” of cycle times. After amplification, the samples were quantified via fluorimetry.
PCR was performed at annealing temperatures that were five degrees above the average melting temperature of each primer pair. For primers greater than 10 bases (in a 0.05M salt solution), melting temperature was calculated using the following formula: Tm=59.9+41[% GC]−[675/Primer Length], where %GC is the decimal value. Following determination of the average melting temperature of the primer pair, the annealing temperature was determined by adding five degrees to the average melting temperature. […]

[5] = test system: REC1_5 (AGTG 184) mRNA; assay: quantified RT-PCR, Rec1_5; type: in vivo, rabbit; conditions: for Relative Abundance Rec1_5, 100 pg F: hypercholesterolemic plus lercanidipine racemate, eight weeks, H2 (normocholesterolemic)=1.0
Method: as §1, §2, §3, §4, §5

[6] = test system: Rec1_20 (TTAC 210) mRNA; assay: quantified RT-PCR, Rec1_20; type: in vivo, rabbit; conditions: for Relative Abundance Rec1_20, 20 pg F: hypercholesterolemic plus lercanidipine racemate, eight weeks, H2 (normocholesterolemic)=1.0
Method: as §1, §2, §3, §4, §5

[7] = test system: Rec1_22 (TGGG 164) mRNA; assay: quantified RT-PCR, Rec1_22; type: in vivo, rabbit; conditions: for Relative Abundance Rec1_22, 20 pg D: hypercholesterolemic plus lercanidipine R (−), eight weeks, H2 (normocholesterolemic)=1.0
Method: as §1, §2, §3, §4
Background fluorescence was determined by using duplicate control samples that were cycled with all reaction components except the template. The mean value from these duplicate background control samples was subtracted from the corresponding experimental values prior to analyzing results. The sensitivity of the PicoGreen dsDNA assay is reported to be 250 pg/ml (50 pg dsDNA in a […] assay volume) using a fluorescence microplate reader such as was used in these measurements.
FIG. 22 is a graphical representation of the results of RT-PCR using 20 pg of clone REC1—22 template, in which the amount of PCR product (measured in arbitrary fluorescence units) is plotted against number of cycles, where polyA enriched mRNA was extracted from aortas of rabbits that were normocholesterolemic (filled diamonds, “H2”) and hypercholesterolemic plus lercanidipine R (−), eight weeks (filled squares, “D”).

[8] = hypercholesterolemic animals receiving lercanidipine

concentration at 7 days ([1]; subcutaneous administration of 1 mg/kg): 500 ng/g | concentration at 7 days ([1]; subcutaneous administration of 3 mg/kg): 3200 ng/g
SMILES: COC(=O)C1=C(C)NC(C)=C(C(=O)OC(C)(C)CN(C)CCC(c2ccccc2)c2ccccc2)C1c1cccc([N+](=O)[O-])c1 (racemic) [lercanidipine, lercanidipine hydrochloride]
Relative Abundance Rec1_12, 20 pg F ([2]; cycle 26): 0.1 | Relative Abundance Rec1_12, 20 pg F ([2]; cycle 28): 0.0 | Relative Abundance Rec1_12, 20 pg F ([2]; cycle 30): 0.4 | Relative Abundance Rec1_12, 20 pg F ([2]; cycle 32): 0.6 | Relative Abundance Rec1_12, 20 pg F ([2]; cycle 34): 0.6 | Relative Abundance Rec1_12, 20 pg F ([2]; cycle 36): 0.6 | expression of Rec1_12 at 8 weeks (RT-PCR study), in words [2, 8]: decreased | aortic fatty lesion deposition [3]: inhibit | Relative Abundance Rec1_36, 100 pg F ([4]; cycle 30): 0.2 | Relative Abundance Rec1_36, 100 pg F ([4]; cycle 32): 0.5 | Relative Abundance Rec1_36, 100 pg F ([4]; cycle 34): 0.4 | Relative Abundance Rec1_5, 100 pg F ([5]; cycle 24): 512.5 | Relative Abundance Rec1_5, 100 pg F ([5]; cycle 26): 805.0 | Relative Abundance Rec1_5, 100 pg F ([5]; cycle 28): 0.2 | Relative Abundance Rec1_5, 100 pg F ([5]; cycle 30): 0.6 | Relative Abundance Rec1_5, 100 pg F ([5]; cycle 32): 1.1 | Relative Abundance Rec1_5, 100 pg F ([5]; cycle 34): 1.0 | expression of Rec1_5 at 8 weeks (RT-PCR study), in words ([5]; hypercholesterolemic animals receiving lercanidipine racemate, at 28-30 cycles): decreased | Relative Abundance Rec1_20, 20 pg F ([6]; cycle 26): 0.0 | Relative Abundance Rec1_20, 20 pg F ([6]; cycle 28): 0.1 | Relative Abundance Rec1_20, 20 pg F ([6]; cycle 30): 0.2 | Relative Abundance Rec1_20, 20 pg F ([6]; cycle 32): 0.2 | Relative Abundance Rec1_20, 20 pg F ([6]; cycle 34): 0.2 | expression of Rec1_20 at 8 weeks (RT-PCR study), in words [6, 8]: decreased

SMILES: COC(=O)C1=C(C)NC(C)=C(C(=O)OC(C)(C)CN(C)CCC(c2ccccc2)c2ccccc2)[C@@H]1c1cccc([N+](=O)[O-])c1.Cl (single isomer, unassigned) [(R)-lercanidipine]
Relative Abundance Rec1_22, 20 pg D ([7]; cycle 26): 0.0 | Relative Abundance Rec1_22, 20 pg D ([7]; cycle 28): 0.0 | Relative Abundance Rec1_22, 20 pg D ([7]; cycle 30): 0.5 | Relative Abundance Rec1_22, 20 pg D ([7]; cycle 32): 0.7 | Relative Abundance Rec1_22, 20 pg D ([7]; cycle 34): 0.8 | expression of Rec1_22 at 8 weeks (RT-PCR study), in words ([7]; hypercholesterolemic animals receiving lercanidipine R (−) compared to normocholesterolemic animals): decreased
